Measured values as given in publication PMC7912796, “Design, Synthesis, Anticancer Activity, and Solid Lipid Nanoparticle Formulation of Indole- and Benzimidazole-Based Compounds as Pro-Apoptotic Agents Targeting Bcl-2 Protein” (Pharmaceuticals, 2021).

What was measured:
[1] = system: A549/lung adenocarcinoma cells; assay: MTT-cell proliferation assay; type: cell-based, human; settings: Homo sapiens, A549, 48 h drug exposure, mean of three experiments ± SEM
Source text: (§1) The potential anti-cancer activity of all fourteen final synthesized compounds was investigated through MTT cytotoxic assay against two different human solid cancerous cell lines; A549/lung and MDA-MB-231/breast adenocarcinoma. The adopted cell-proliferation assay assessed % cell viability in relation to the reducing activity of cellular NADPH-dependent cellular oxidoreductases on tetrazolium dye, MTT [2,5-diphenyl-3-(4,5-dimethylthiazol-2-yl)tetrazolium bromide salt], for furnishing an easily quantified insoluble chromogenic formazan. For each drug concentration, 0.1, 1, 10, and 100 μM, the % cell-viability was estimated relative to negative control following a complete 48 h of drug treatment. Both 5-fluorouracil (5-FU) and doxorubicin (DOX) were set as positive index comparators. Moreover, the safety profile of the synthesized compounds was further investigated by examining their in-vitro cytotoxicity on non-cancerous cell line; MDCK/kidney cells.
(§2) Evaluating the cytotoxicity of tested compounds on two cancer cell lines (A549/lung and MDA-MB-231/breast adenocarcinoma) and non-cancerous (MDCK/kidney cells) was performed while adopting the formerly described method with small alterations. Cancer cell lines were propagated within Dulbecco’s Modified Eagle Medium-High Glucose (Cat.#: P0103; DMEM_High Glucose with Na.Pyruvate and stable Glutamine, Biowest^TM, Nuaillé, France), while MDA-MB-231 cells were propagated within RPMI-1640 L-Glutamine medium (Cat.#:12-604F; Lonza-Verviers SPRL^TM, Verviers, Belgium). The culturing media were supplemented via 1% antibiotic-antimycotic 100X (Cat.#: L0010; Biowest^TM, Nuaillé, France) and 10% fetal bovine serum (FBS) (Cat.#: EU-000-H; Seralab^TM, West Sussex, UK). Cells were seeded as triplicates within 96-well plate, at 1 × 10^4 cells per well density, after being counted and viability checked using the trypan blue staining solution (Cat.# ab233465; Abcam^TM, Cambridge, MA, USA). Seeded cells were permitted to adhere for 24 h under 5% CO2 and at 37 °C incubating conditions. The assigned compounds were dissolved in 500 µL DMSO affording the stock solution (100 mM) being ready for more diluting within the whole medium to obtain the compound’s final concentrations; 0.1, 1, 10, 100 µM for cell treatments. […] Following 24 h compound-cell treatment, the medium was substituted by fresh one and cells were permitted to develop for 48 h. At four hours prior the end of incubation, 10 μL MTT Sigma-Aldrich^TM (5 mg/mL in PBS 1X without magnesium and calcium; Cat.# 17-516F, Lonza-Verviers^TM, Basel, Switzerland) were added to all wells. Following the complete 48 h incubation, 100 μL DMSO was all added to all wells where they were subsequently centrifuged at 4000 rpm for 5 min allowing the formazan crystals of formazan to precipitate. Color was established and intensities were recorded at 490 nm using Synergy-Neo2® Hybrid MultiMode Plate Reader (BioTek^TM, Winooski, VT, USA), while subtracting the multi-well plates background absorbance at 690 nm. Percentage cell viability was estimated using the subsequent formula: % cell-viability = (average absorbance of treated wells/average absorbance of controls) × 100.

[2] = system: MDA-MB-231/breast cancer cells; assay: MTT-cell proliferation assay; type: cell-based, human; settings: 48 h drug exposure, mean of three experiments ± SEM
Source text: as §1, §2

[3] = system: MDCK/kidney non-cancerous cells; assay: MTT-cell proliferation assay on non-cancerous cell line; type: cell-based; settings: 48 h drug exposure, mean ± SEM
Source text: as §1, §2

[4] = system: Bax/Bcl-2 gene expression ratio; assay: RT-PCR Bax/Bcl-2 gene expression ratio; type: cell-based, human; settings: 13 μM, 48 h, MDA-MB-231; control 1
Protocol: (§3) Dissection of the compound’s proapoptotic activity was proceeded through gene expression analysis for key genes, controlling apoptosis pathway, as well as protein level determination. Following 8b treatment for 48 h, alterations within MDA-MB-231/breast cancer cell expression of Bcl-2, Bax, caspase-3, -8, and -9 genes, as well as cytochrome c and class-III β-tubulin proteins levels were determined using real-time polymerase chain reaction (RT-PCR) or ELISA technique, respectively. Typically, Bcl-2, Bax, caspases, and cytochrome c proteins contributes within the regulation of apoptotic signaling. Acting as apoptotic activator (Bax) or inhibitor (Bcl-2), the Bcl-2 family proteins play their significant role in apoptosis. The caspases family are cysteine proteases being classified as either executioners; caspase-3, -6, or -7 or initiators; caspase-8 and -9 [36]. […]
Quantitative Real-time PCR was operated on Rotor-Gene Q® PCR system as a reader (Cat.#: 204774; Qiagen^TM, Milan, Italy) via GenElute® RNA extraction/SIGMA PCR kit (Cat.#: REI10; Qiagen^TM, Milan, Italy)^86. […] RNA purity was assessed via Nanodrop® 2000/2000c UV-Vis spectrophotometer (Thermo-Scientific^TM, Bilbao, Spain). […] Obtained results were expressed within Cycle threshold (Ct) values, while relative quantitation of each measured gene was assessed based on ΔΔCt calculations as represented in Table 5 [79].

[5] = system: human cytochrome c protein; assay: ELISA protein level; type: cell-based; settings: 13 μM, 48 h, MDA-MB-231; control 0.295 ng/mL
Protocol: as §3, with “[36]. Regrading caspase-8, its activation is proceeded through extrinsic death-receptor dependent apoptotic pathway, while, caspase-9 activation is within the event of intrinsic mitochondrial cytochrome c leakage. Additionally, participation of activated caspase-3 is to be essential for caspase-8 activation.” for “[36].”
Quantikine® Colorimetric Sandwich-ELISA Kit (Cat.#: DCTC0; R&D Systems, Minneapolis, MN, USA) was used for quantitating the targeted human cytochrome c protein through immunoassay protocol. […]

**Q.** Which results are given for `CCCc1ccc(-c2nn(-c3ccccc3)cc2C=NNC(=O)c2cc3ccccc3[nH]2)cc1` [Compound 8b, N′-((1-phenyl-3-(4-propylphenyl)-1H-pyrazol-4-yl)methylene)-1H-indole-2-carbohydrazide]?
**A.** IC50 [1]: 23.1 ± 1.45 µM; IC50 [2]: 12.7 ± 2.48 µM; IC50 ([2]; Homo sapiens, MDA-MB-231, 48 h): ~13 µM; IC50 [3]: 92.75 ± 0.43 µM; IC50 ([3]; Canis lupus familiaris, MDCK, 48 h): 92 µM; Bax/Bcl expression ratio [4]: 21.88; cytochrome c level [5]: 0.675 ng/mL
